Measured values from ChEMBL document CHEMBL1201862, “PubChem BioAssay data set” (2004).
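Exposure lasted 48 hours, with cells grown in 96-well plates and compounds tested at five concentrations. GI50: concentration for 50% inhibition of growth.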 Calls of active or inactive are those of the source. Cut-off read from the data, not from the text of the source: active = GI50 up to about 1.1 µM and inactive = higher.

What was measured:
Test in all cases: inhibition of tumour cell growth, NCI panel, 48 h
[1] = tested on: OVCAR-8
[2] = tested on: SK-MEL-5
[3] = tested on: HT-29
[4] = tested on: SF-268
[5] = tested on: CCRF-CEM
[6] = tested on: NCI-H23
[7] = tested on: OVCAR-3
[8] = tested on: MOLT-4
[9] = tested on: CAKI-1
[10] = tested on: U-251
[11] = tested on: COLO 205
[12] = tested on: A549
[13] = tested on: OVCAR-4
[14] = tested on: SK-MEL-2
[15] = tested on: T47D
[16] = tested on: MDA-MB-435
[17] = tested on: RXF 393
[18] = tested on: K562
[19] = tested on: HCC 2998
[20] = tested on: SK-OV-3
[21] = tested on: SF-295
[22] = tested on: M14
[23] = tested on: SK-MEL-28
[24] = tested on: KM12
[25] = tested on: NCI-H226
[26] = tested on: HCT-116
[27] = tested on: UO-31
[28] = tested on: PC-3
[29] = tested on: SN12C
[30] = tested on: Hs-578T
[31] = tested on: OVCAR-5
[32] = tested on: IGROV-1
[33] = tested on: A498
[34] = tested on: MDA-N
[35] = tested on: TK-10
[36] = tested on: MDA-MB-231
[37] = tested on: SR
[38] = tested on: UACC-62
[39] = tested on: HOP-92
[40] = tested on: HCT-15
[41] = tested on: EKVX
[42] = tested on: RPMI-8226
[43] = tested on: SNB-75
[44] = tested on: HOP-62
[45] = tested on: ACHN
[46] = tested on: 786-0
[47] = tested on: HL-60
[48] = tested on: MCF7
[49] = tested on: SNB-19
[50] = tested on: NCI-H460
[51] = tested on: LOX IMVI
[52] = tested on: DU-145
[53] = tested on: UACC-257
[54] = tested on: Malme-3M
[55] = tested on: SW-620
[56] = tested on: BT-549
[57] = tested on: NCI/ADR-RES
[58] = tested on: SF-539
[59] = tested on: NCI-H522

CN1C(=O)N/C(=C\c2ccc(S(=O)(=O)N/N=C/c3ccccc3)cc2)C1=O
GI50 [1]: 28.5 µM (inactive)
GI50 [2]: 13.6 µM (inactive)
GI50 [3]: 30.9 µM (inactive)
GI50 [4]: 26.8 µM (inactive)
GI50 [5]: 13.3 µM (inactive)
GI50 [6]: 23.3 µM (inactive)
GI50 [7]: 30.9 µM (inactive)
GI50 [8]: 14.5 µM (inactive)
GI50 [9]: 21.2 µM (inactive)
GI50 [10]: 40.6 µM (inactive)
GI50 [11]: 71.9 µM (inactive)
GI50 [12]: 28.5 µM (inactive)
GI50 [13]: 18.9 µM (inactive)
GI50 [14]: 15 µM (inactive)
GI50 [15]: 35.2 µM (inactive)
GI50 [16]: 37 µM (inactive)
GI50 [17]: 21.2 µM (inactive)
GI50 [18]: 30 µM (inactive)
GI50 [19]: 32.1 µM (inactive)
GI50 [20]: > 100 µM (inactive)
GI50 [21]: 21.9 µM (inactive)
GI50 [22]: 37 µM (inactive)
GI50 [23]: 38 µM (inactive)
GI50 [24]: 15.7 µM (inactive)
GI50 [25]: 74.6 µM (inactive)
GI50 [26]: 23.8 µM (inactive)
GI50 [27]: 15.5 µM (inactive)
GI50 [28]: 22.1 µM (inactive)
GI50 [29]: 66.2 µM (inactive)
GI50 [30]: 35.5 µM (inactive)
GI50 [31]: > 100 µM (inactive)
GI50 [32]: 42.1 µM (inactive)
GI50 [33]: > 100 µM (inactive)
GI50 [34]: 32 µM (inactive)
GI50 [35]: 31 µM (inactive)
GI50 [36]: 11 µM (inactive)
GI50 [37]: 10.4 µM (inactive)
GI50 [38]: 28.9 µM (inactive)
GI50 [39]: 17.1 µM (inactive)
GI50 [40]: 10.4 µM
GI50 [41]: 53.1 µM (inactive)
GI50 [42]: 18.6 µM (inactive)
GI50 [43]: 48.3 µM (inactive)
GI50 [44]: 64.9 µM (inactive)
GI50 [45]: 24.7 µM (inactive)
GI50 [46]: 34.8 µM (inactive)
GI50 [47]: 4.93 µM (inactive)
GI50 [48]: 19.1 µM (inactive)
GI50 [49]: 62.2 µM (inactive)
GI50 [50]: 10.5 µM (inactive)
GI50 [51]: 18.1 µM (inactive)
GI50 [52]: 40 µM (inactive)
GI50 [53]: 18.4 µM (inactive)
GI50 [54]: 45.5 µM (inactive)
GI50 [55]: 91.6 µM (inactive)
GI50 [56]: 27.7 µM (inactive)
GI50 [57]: 27.6 µM (inactive)

C(#Cc1ccccc1)SC1=C(c2ccccc2)S/C(=C(\SC#Cc2ccccc2)c2ccccc2)S1
GI50 [1]: > 100 µM (inactive)
GI50 [2]: > 100 µM (inactive)
GI50 [3]: > 100 µM (inactive)
GI50 [4]: > 100 µM (inactive)
GI50 [5]: > 100 µM (inactive)
GI50 [6]: > 100 µM (inactive)
GI50 [7]: > 100 µM (inactive)
GI50 [8]: > 100 µM (inactive)
GI50 [9]: > 100 µM (inactive)
GI50 [10]: > 100 µM (inactive)
GI50 [11]: > 100 µM (inactive)
GI50 [12]: > 100 µM (inactive)
GI50 [13]: > 100 µM (inactive)
GI50 [15]: > 100 µM (inactive)
GI50 [16]: > 100 µM (inactive)
GI50 [18]: > 100 µM (inactive)
GI50 [19]: > 100 µM (inactive)
GI50 [20]: > 100 µM (inactive)
GI50 [21]: > 100 µM (inactive)
GI50 [22]: > 100 µM (inactive)
GI50 [23]: > 100 µM (inactive)
GI50 [24]: > 100 µM (inactive)
GI50 [25]: > 100 µM (inactive)
GI50 [26]: > 100 µM (inactive)
GI50 [27]: > 100 µM (inactive)
GI50 [28]: > 100 µM (inactive)
GI50 [29]: > 100 µM (inactive)
GI50 [30]: > 100 µM (inactive)
GI50 [31]: > 100 µM (inactive)
GI50 [32]: > 100 µM (inactive)
GI50 [34]: > 100 µM (inactive)
GI50 [35]: > 100 µM (inactive)
GI50 [36]: > 100 µM (inactive)
GI50 [37]: > 100 µM (inactive)
GI50 [38]: > 100 µM (inactive)
GI50 [58]: > 100 µM (inactive)
GI50 [39]: > 100 µM (inactive)
GI50 [40]: > 100 µM
GI50 [41]: > 100 µM (inactive)
GI50 [43]: > 100 µM (inactive)
GI50 [44]: > 100 µM (inactive)
GI50 [45]: > 100 µM (inactive)
GI50 [46]: > 100 µM (inactive)
GI50 [59]: > 100 µM (inactive)
GI50 [48]: > 100 µM (inactive)
GI50 [49]: > 100 µM (inactive)
GI50 [50]: > 100 µM (inactive)
GI50 [51]: > 100 µM (inactive)
GI50 [52]: > 100 µM (inactive)
GI50 [53]: > 100 µM (inactive)
GI50 [55]: > 100 µM (inactive)
GI50 [56]: > 100 µM (inactive)
GI50 [57]: > 100 µM (inactive)
